The text below walks through data of paper PMC4061029, “A Stable and Reproducible Human Blood-Brain Barrier Model Derived from Hematopoietic Stem Cells” (PLoS ONE, 2014).

Data set [1] relates to β-catenin. Briefly: Wnt signaling experiments: β-catenin expression in monocultures of ECs. In kind it is cell-based, human. The settings on record: EC monoculture; for expression of active β-catenin: after 1 day; for expression and nuclear localization of total β-catenin: day 3, BIO 0.5 µM, Wnt3a 6.25 ng/mL. On the procedure: For Wnt signaling experiments, mono- and co-culture systems were used. In monoculture, 8×10^4 CD34^+-ECs were seeded on the Matrigel-coated transwell insert. […] Co-cultures were prepared as described before. The CD34^+-derived ECs co-cultured with pericytes for 1 or 6 days were used in the signaling experiments. Agonist (0.5–5 µM BIO) was added into the basolateral compartment while antagonist (0.1–3 µM XAV939 (Selleckbio)) was added in the apical part of the transwell system.
Immunostaining. Cells were fixed in cold methanol/acetone (50%/50% v/v) for 1 min or 4% (v/v) paraformaldehyde (Electron Microscopy Sciences, EMS) for 10 min at room temperature (see Table S1). After permeabilizing the cells with 0.1% (v/v) Triton X-100 (Sigma-Aldrich) for 5-10 min, whenever required, and blocking for 30 min with 1% (w/v) bovine serum albumin (BSA) solution (Sigma-Aldrich) or normal goat serum (10% (v/v), Sigma-Aldrich), the cells were incubated for 1 h with the primary monoclonal antibodies listed in Table S1, at room temperature. After washing, the cells were stained with a secondary antibody for 1 h in the dark at room temperature (Table S1). In each immunofluorescence experiment, an isotype-matched IgG control was used. The nuclei of cells was stained with 4',6-diamidino-2-phenylindole (DAPI; Sigma-Aldrich) or Hoescht reagent (ICN Pharmaceuticals). Cells were mounted using Mowiol (Sigma-Aldrich) containing an anti-fading agent (Dabco, Sigma-Aldrich) or cell-mounting medium from DAKO. Cells were examined with a Zeiss LSM 50 confocal microscope or with a Leica DMR fluorescence microscope (Leica Microsystems). In the last case, images were collected using a Cool SNAP RS Photometrics camera (Leica Microsystems) and were processed using Adobe Photoshop software 5.5 (Adobe systems).
FACS analysis. Cells were dissociated from the culture plate by exposure to Cell Dissociation Buffer (Life Technologies) for 3-5 min and gentle pipetting, centrifuged and finally resuspended in PBS supplemented with 5% (v/v) FBS. The single cell suspensions were aliquoted (2.0×10^5 cells per condition), fixed with 4% (v/v) paraformaldehyde (PFA; EMS) or ice-cold absolute methanol and permeabilized with 0.1% (w/v) Triton X-100 (Fluka) when necessary. The cells were stained with antigen-specific primary antibodies (dilution ratios and list of antibodies are given on Table S1). After the incubation with primary antibodies, cells were incubated with phycoerytrin (PE)-conjugated anti-rabbit (R&D Systems), and PE-conjugated anti-mouse (Santa Cruz) secondary antibodies. FACS Calibur (BD Biosciences) and BD Cell Quest Software (BD Biosciences) were used for the acquisition and analysis of the data.

Data set [2] concerns monocultures of CD34+-derived ECs. Briefly: Wnt signaling experiments: paracellular permeability of treated EC monocultures. Format: cell-based, human. The settings on record: Wnt3a 6.25 ng/mL. On the procedure: (§1) Prior to the experiments, HEPES-buffered Ringer’s solution (in some cases EBM-2 medium) was added to empty wells of a 12-well plate (Costar). Filter inserts, containing confluent monolayers of CD34^+-ECs, were subsequently placed in the 12-well plate, filled with compound solution containing the fluorescent integrity marker Lucifer Yellow (20 µM; Life Technologies), and then placed on an orbital shaker. After 1 h, filter inserts were withdrawn from the receiver compartment. Aliquots from the donor solution were taken at the beginning and at the end of the experiments and the fluorescence was quantified. At least three inserts with cells and three without cells were tested in each permeability measurement. Fluorescence detection was carried out on a Synergy H1 multiplates reader (Biotek) using the following excitation/emission wavelength (nm) settings: 432/538; 490/516; 542/570 for Lucifer yellow, Fluorescein Na and Cy3-Human Serum Albumin and Human IgG respectively.
To obtain a concentration-independent transport parameter, the clearance principle was used. The increment in cleared volume was calculated by dividing the amount of compound in the receiver compartment by the drug concentration in the donor compartment. The volume cleared was plotted versus time and the slope estimated by linear regression analysis. The slope of the clearance curve with inserts alone and inserts with cells is equal to PSf and PSt, respectively, where PS (microliters/minute) is the permeability surface area (square centimeter) product. The PS-value for endothelial monolayer (PSe) was calculated. To generate the endothelial permeability coefficient, Pe (cm/min), the PSe value was divided by the surface area of the filter (A in cm^2) insert using the following equation: Pe = [1/PSt−1/PSf]^−1/A. To assess possible adsorption to plastics and non-specific binding to cells, the mass balance (%) was calculated from the amount of compound recovered in both compartments at the end of the experiment divided by the total amount added in the donor compartment at time zero. For Pe determination, mass balance value should be between 80% and 120%.
(§2) For Wnt signaling experiments, mono- and co-culture systems were used. In monoculture, 8×10^4 CD34^+-ECs were seeded on the Matrigel-coated transwell insert. The cells were then incubated with agonists/ligands (6.25 ng/mL–100 ng/mL Wnt3A (R&D Systems), 6.25 ng/mL–250 ng/mL Wnt7A (Peprotech) or 0.5–5 µM BIO (Sigma)) for 1 or 5 days. Co-cultures were prepared as described before. The CD34^+-derived ECs co-cultured with pericytes for 1 or 6 days were used in the signaling experiments. Agonist (0.5–5 µM BIO) was added into the basolateral compartment while antagonist (0.1–3 µM XAV939 (Selleckbio)) was added in the apical part of the transwell system.

Data set [3] concerns CD34+-derived ECs. Put plainly: qRT-PCR of claudin-1 and LEF1 in ECs treated with Wnt ligands. Format: cell-based, human. The settings on record: EC monoculture. On the procedure:
as §2
Reverse transcription and quantitative real time polymerase chain reaction (qRT-PCR) analysis. CD34^+-ECs cultured in different conditions were homogenized in Trizol reagent (Life Technologies) and total RNA was extracted using the RNeasy Mini Kit (Qiagen), according to manufacturer’s instructions. In all cases, cDNA was prepared from 1 μg total RNA using Taqman Reverse transcription reagents (Applied Biosystems). Non-quantitative RT-PCR was performed using the conditions described in [4] and DNA migrated on a agarose gel electrophoresis (1.5%) with a low range DNA molecular weight marker (Euromedex) to visualize the sizes. Gels were then stained with gel red nucleic acid gel stain (Interchim) and visualized on a UV light transilluminator (Bio-Rad). Quantitative real time PCR (qRT-PCR) was performed using Power SYBR Green PCR Master Mix (Applied Biosystems) and the detection was carried out in a 7500 Fast Real-Time PCR System (Applied Biosystems). Quantification of target genes was performed relatively to the reference GAPDH gene: relative expression = 2^[-(Ctsample^-CtGADPH^)]. Primer sequences are given as supporting information (Table S2).

In data set [4] the test system is CD34+-derived ECs. Briefly: Immunostaining of claudin-1 in treated EC monocultures. In kind it is cell-based, human. The settings on record: EC monoculture, day 6; BIO 0.5 µM, Wnt3a 6.25 ng/mL. Here is the method: as §2
Immunostaining. Cells were fixed in cold methanol/acetone (50%/50% v/v) for 1 min or 4% (v/v) paraformaldehyde (Electron Microscopy Sciences, EMS) for 10 min at room temperature (see Table S1). After permeabilizing the cells with 0.1% (v/v) Triton X-100 (Sigma-Aldrich) for 5-10 min, whenever required, and blocking for 30 min with 1% (w/v) bovine serum albumin (BSA) solution (Sigma-Aldrich) or normal goat serum (10% (v/v), Sigma-Aldrich), the cells were incubated for 1 h with the primary monoclonal antibodies listed in Table S1, at room temperature. […] Cells were examined with a Zeiss LSM 50 confocal microscope or with a Leica DMR fluorescence microscope (Leica Microsystems). […]

For data set [5], the target named is P-gp (Homo sapiens, UniProt P08183). The settings on record: [3H]-vincristine sulphate 66.5 nM, 2 h; 25 μM verapamil or 0.5 μM elacridar.
Sequence of P-gp (P08183 whole entry): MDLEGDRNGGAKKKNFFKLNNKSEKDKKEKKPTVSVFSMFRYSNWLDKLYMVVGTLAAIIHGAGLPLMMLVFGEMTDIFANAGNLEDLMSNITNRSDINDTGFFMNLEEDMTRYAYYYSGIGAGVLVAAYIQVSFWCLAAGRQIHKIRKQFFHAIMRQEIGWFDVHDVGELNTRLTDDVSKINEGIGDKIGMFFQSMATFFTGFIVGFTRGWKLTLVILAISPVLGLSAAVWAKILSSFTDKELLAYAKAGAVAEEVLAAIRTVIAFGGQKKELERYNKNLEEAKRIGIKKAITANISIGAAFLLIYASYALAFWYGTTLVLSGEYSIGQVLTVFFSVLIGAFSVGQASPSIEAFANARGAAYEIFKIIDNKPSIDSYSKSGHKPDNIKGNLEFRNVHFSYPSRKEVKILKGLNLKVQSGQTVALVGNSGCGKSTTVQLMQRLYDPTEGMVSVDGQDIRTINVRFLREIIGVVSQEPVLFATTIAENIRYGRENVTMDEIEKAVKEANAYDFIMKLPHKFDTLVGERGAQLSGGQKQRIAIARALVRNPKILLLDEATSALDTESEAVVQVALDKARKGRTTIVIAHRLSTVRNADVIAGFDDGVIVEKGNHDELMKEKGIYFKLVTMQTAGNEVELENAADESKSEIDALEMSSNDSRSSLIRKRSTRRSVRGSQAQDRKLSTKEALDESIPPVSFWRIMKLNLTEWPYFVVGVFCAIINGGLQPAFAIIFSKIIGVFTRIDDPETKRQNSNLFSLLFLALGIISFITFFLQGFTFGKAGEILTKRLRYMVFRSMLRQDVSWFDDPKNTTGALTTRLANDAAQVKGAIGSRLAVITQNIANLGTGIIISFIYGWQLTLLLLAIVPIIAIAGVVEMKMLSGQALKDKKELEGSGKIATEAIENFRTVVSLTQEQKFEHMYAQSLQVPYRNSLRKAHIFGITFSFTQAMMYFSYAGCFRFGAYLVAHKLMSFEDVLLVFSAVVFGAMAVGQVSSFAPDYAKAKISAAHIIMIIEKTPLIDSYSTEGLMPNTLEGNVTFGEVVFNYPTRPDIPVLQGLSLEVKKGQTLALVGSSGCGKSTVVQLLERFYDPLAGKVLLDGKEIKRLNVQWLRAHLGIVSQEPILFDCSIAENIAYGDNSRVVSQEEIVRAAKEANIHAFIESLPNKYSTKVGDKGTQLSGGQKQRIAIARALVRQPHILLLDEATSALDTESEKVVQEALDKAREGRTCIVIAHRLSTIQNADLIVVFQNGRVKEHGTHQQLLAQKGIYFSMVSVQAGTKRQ
The subject of data set [6] is monolayers of CD34+-derived ECs (monoculture). Briefly: Endothelial permeability (Pe) to Lucifer yellow, ECs in monoculture. In kind it is in vitro ADME, human. The settings on record: CD34+-derived ECs grown to confluence on filters for 6 days. On the procedure: as §1
To obtain a concentration-independent transport parameter, the clearance principle was used. The increment in cleared volume was calculated by dividing the amount of compound in the receiver compartment by the drug concentration in the donor compartment. The volume cleared was plotted versus time and the slope estimated by linear regression analysis. […] The PS-value for endothelial monolayer (PSe) was calculated. […]

Data set [7] relates to brain-like endothelial cells (BLECs). Briefly: Endothelial permeability (Pe) to Lucifer yellow, ECs co-cultured with pericytes (BLECs). In kind it is in vitro ADME, human. The settings on record: day 6, n = 60. Here is the method:
For co-culture experiments, pericytes were initially seeded on 60-mm gelatin-coated petri dishes and cultured in Dulbecco’s Modified Eagle’s Medium (DMEM) (Life Technologies) supplemented with 20% (v/v) FBS (Life Technologies), 2 mM L-glutamine, 50 µg/mL gentamycin and 1 ng/mL bFGF. The cells reached confluency after 2 days. 45×10^3 cells were seeded into each well of 12-well plates (Costar). […]
Prior to the experiments, HEPES-buffered Ringer’s solution (in some cases EBM-2 medium) was added to empty wells of a 12-well plate (Costar). […] Aliquots from the donor solution were taken at the beginning and at the end of the experiments and the fluorescence was quantified. […] Fluorescence detection was carried out on a Synergy H1 multiplates reader (Biotek) using the following excitation/emission wavelength (nm) settings: 432/538; 490/516; 542/570 for Lucifer yellow, Fluorescein Na and Cy3-Human Serum Albumin and Human IgG respectively.
To obtain a concentration-independent transport parameter, the clearance principle was used. The increment in cleared volume was calculated by dividing the amount of compound in the receiver compartment by the drug concentration in the donor compartment. […] The PS-value for endothelial monolayer (PSe) was calculated. […]

The subject of data set [8] is cord blood-derived ECs co-cultured with astrocytes. Details: method as in PMID 24392113. The settings on record: BBB model of cord blood-derived ECs co-cultured with astrocytes; cited from earlier work.
Data set [9] has as its system BLECs. Put plainly: Expression of adhesion molecules by BLECs (FACS). Format: cell-based, human. The settings on record: 10 ng/mL for 24 h. Here is the method:
Adhesion molecule expression by BLECs was determined by FACS. For these experiments, CD34^+-ECs were cultured with pericytes for 6 days. After co-culture, transwells with BLEC monolayers were transferred to a new 12-well plate. BLECs were treated with 10 ng/mL TNF-α (Peprotech) for 24 h. Untreated BLECs were used as control. Cells were dissociated from the culture plate by exposure to Cell Dissociation Buffer (Life Technologies) for 3–5 min and gentle pipetting, centrifuged and finally resuspended in PBS supplemented with 5% (v/v) FBS. The single cell suspensions were aliquoted (2.0×10^5 cells per condition) and incubated with primary antibodies against human CD40, ICAM1, ICAM2, VCAM1, PECAM1 (Table S1). After the incubation with primary antibodies, cells were incubated with phycoerytrin (PE)-conjugated anti-rabbit (R&D Systems), and PE-conjugated anti-mouse (Santa Cruz) secondary antibodies. FACS Calibur (BD Biosciences) and BD Cell Quest Software (BD Biosciences) were used for the acquisition and analysis of the data.
FACS analysis. Cells were dissociated from the culture plate by exposure to Cell Dissociation Buffer (Life Technologies) for 3-5 min and gentle pipetting, centrifuged and finally resuspended in PBS supplemented with 5% (v/v) FBS. […]

Where [10] appears, read: long-term: 1 day of monoculture + 5 day of treatment, Wnt7a 6.25 ng/mL, BIO 0.5 µM.

As for `O=C1Nc2cc(Br)ccc2/C1=C1/Nc2ccccc2/C1=N\O` [BIO], in data set [1], the “expression of active β-catenin” value was “increasing”; the “expression and nuclear localization of total β-catenin” value is recorded as “increase”. Moreover, the “paracellular permeability to Lucifer Yellow versus untreated cells” value in data set [2] (setting [10]) is on record as “only observed after 5-day treatment”. In data set [3], the LEF1 gene expression entry was “up-regulation” and the claudin-1 gene expression entry is “up-regulation”. In data set [4], the “localization of claudin-1” value was “localization of claudin-1 at the cell-cell contacts”.

As for `COc1cc2c(cc1OC)CN(CCc1ccc(NC(=O)c3cccc4c(=O)c5cccc(OC)c5[nH]c34)cc1)CC2` [elacridar], in data set [5], the “accumulation of vincristine in BLECs on inhibition of P-gp” value was “significant increase”.

As to Lucifer yellow, the figures for the “permeability to Lucifer yellow” value in data set [6] and in data set [7] were 33.3 ×10⁻⁶ cm/s and 0.61±0.15×10^−3 cm/min, respectively. Moreover, in [8], the “Pe to Lucifer yellow” value was 20.5 ×10⁻⁶ cm/s.

As to TNF-α, in [9], the “expression of ICAM-1, ICAM-2, CD40 and VCAM-1” value was “up-regulation”.

B1: Wnt7a: human recombinant protein Wnt7a, Wnt ligand (protein, UniProt O00755 32-349, looked up)
Protein Wnt-7a: LGASIICNKIPGLAPRQRAICQSRPDAIIVIGEGSQMGLDECQFQFRNGRWNCSALGERTVFGKELKVGSREAAFTYAIIAAGVAHAITAACTQGNLSDCGCDKEKQGQYHRDEGWKWGGCSADIRYGIGFAKVFVDAREIKQNARTLMNLHNNEAGRKILEENMKLECKCHGVSGSCTTKTCWTTLPQFRELGYVLKDKYNEAVHVEPVRASRNKRPTFLKIKKPLSYRKPMDTDLVYIEKSPNYCEEDPVTGSVGTQGRACNKTAPQASGCDLMCCGRGYNTHQYARVWQCNCKFHWCCYVKCNTCSERTEMYTCK
Turning to B1, the “paracellular permeability to Lucifer Yellow versus untreated cells” value in [2] (setting [10]) is “only observed after 5-day treatment”.

B2: Wnt3a: human recombinant protein Wnt3a, Wnt ligand (protein, UniProt P56704 19-352, looked up)
Protein Wnt-3a: SYPIWWSLAVGPQYSSLGSQPILCASIPGLVPKQLRFCRNYVEIMPSVAEGIKIGIQECQHQFRGRRWNCTTVHDSLAIFGPVLDKATRESAFVHAIASAGVAFAVTRSCAEGTAAICGCSSRHQGSPGKGWKWGGCSEDIEFGGMVSREFADARENRPDARSAMNRHNNEAGRQAIASHMHLKCKCHGLSGSCEVKTCWWSQPDFRAIGDFLKDKYDSASEMVVEKHRESRGWVETLRPRYTYFKVPTERDLVYYEASPNFCEPNPETGSFGTRDRTCNVSSHGIDGCDLLCCGRGHNARAERRREKCRCVFHWCCYVSCQECTRVYDVHTCK
Turning to B2, in data set [1], the “expression of active β-catenin” value is “increasing”; the “expression and nuclear localization of total β-catenin” value was “increase”. For the same molecule, the “paracellular permeability to Lucifer Yellow versus untreated cells” value in data set [2] (setting [10]) is on record as “statistical lower”. Further, the “paracellular permeability to Lucifer Yellow versus untreated cells” value in data set [2] (short-term: 5 days of monoculture + 1 day of treatment, P<0.01, n = 4) is recorded as “statistical lower”. In data set [3], the LEF1 gene expression result is “up-regulation” and the claudin-1 gene expression result is “up-regulation”. In [4], the “localization of claudin-1” value is “localization of claudin-1 at the cell-cell contacts”.
